Reference: US20160102066A1, “BENZOTHIAZOLE DERIVATIVE AND ANTI-TUMOR USE THEREOF” (YANTAI UNIVERSITY, priority 2014, published 2016)

Test system: prostate cancer RM-1 transplanted tumor
Assay: mice prostate cancer RM-1 transplanted tumor, in vivo
Details: male C57/BL6 mice, i.p., Docetaxel 10 mg/kg × 3, 1-1 100 mg/kg × 4
Experimental: The experiment procedures are summarized as follows: mice who had prostate cancer RM-1 and grown well were sacrificed by cervical dislocation. Under sterile conditions, tumor mass growing well was stripped off, homogenized, diluted with physiological saline in 1:4. Each mouse was inoculated 0.2 mL of the tumor solution in the armpit and back (approximately 2*10^6 cells). On the next day; the animals were randomized into groups and the administration began. […] The dosing volume was 0.1 mL/10 g. At the same time, docetaxel control group and solvent control group were set. As for the docetaxel group, the animals were administered by intraperitoneal injection at 10 mg/kg dose, the dosing volume was 0.1 mL/10 g. After continuous administration for 10 days, the animals were sacrificed by cervical dislocation, weighed the body and the tumor, respectively. Inhibition rate of tumor growth (%) was calculated, and the results were statistically processed.

CC(=O)O[C@@]12CO[C@@H]1C[C@H](O)[C@@]1(C)C(=O)[C@H](O)C3=C(C)[C@@H](OC(=O)[C@H](O)[C@@H](NC(=O)OC(C)(C)C)c4ccccc4)C[C@@](O)([C@@H](OC(=O)c4ccccc4)[C@H]21)C3(C)C [Docetaxel, docetaxel]
Tumor weight: 1.77 ± 0.61 g | body weight of Animals, Final (at sacrifice): 18.43 ± 2.17 g | body weight of Animals, Initial (baseline): 20.00 ± 1.07 g | Inhibition rate of tumor growth (versus solvent control): 32%
